Test results taken from patent publication US11142547B2, “Polypeptide and use thereof” (Genoimmune Therapeutics Co., Ltd., priority 2016, dated 2021).

System: CD8+ T cells
Assay: In vitro stimulation of CD8+ T cells by polypeptide-loaded mature DCs, cell counting
Type: cell-based, human
Conditions: CD8+ T cells with polypeptide-specific mature DCs, counted on day 10; 2.5 × 10^6 before incubation
Protocol: Peripheral blood mononuclear cells (PBMCs) in 100 mL peripheral blood obtained from a HLA-A0201-positive healthy volunteer were isolated using the Ficoll solution, where CD8^+ T cells among the PBMCs were isolated with CD8 magnetic beads, and monocytes among the PBMCs were incubated by an adherence method. Such the monocytes were induced into immature dendritic cells (DCs) in the presence of GM-CSF (1000 U/ml) and IL-4 (1000 U/ml), followed by inducing to polypeptide-specific mature DCs in the presence of IFN-γ (100 U/ml) and CD40L (100 U/ml) as well as the subsequently added with the mutant polypeptide (depicted in […], SEQ ID NO:1), the mutant polypeptide's variant (depicted in […], SEQ ID NO:2), the mutant polypeptide's variant (depicted in […], SEQ ID NO:3), and the mutant polypeptide's variant (depicted in […], SEQ ID NO:4), respectively.
The CD8^+ T cells from the volunteer in a well were incubated with the mature DCs obtained, along with IL-21, with addition of IL-2 and IL-7 after 3 days' culture and addition IL-2 and IL-7 again at day 5 and day 7 respectively, after which the collected mixture of cells were counted on day 10, for use in the next enzyme-linked immune-spot assay (ELISPOT) and lactate dehydrogenase (LDH) assay.

| Sequence | Total number of cells in the well after incubation |
| --- | --- |
| FLLGNLFFL | 1.57 × 10^7 |
| FLLGNLFFV | 1.72 × 10^7 |
| FMLGNLFFL | 1.41 × 10^7 |
| FMLGNLFFV | 1.49 × 10^7 |
